Results: US7749539B2, “Polymeric formulations for drug delivery” (Efrat Biopolymers Ltd., priority 2000, dated 2010)

Assays:
[1] = In vitro release of drug combinations from liquid poly(sebacic-ricinoleic ester anhydride); assay type: physicochemical; settings: for release in combination compared with the drug alone: 1:1 w/w mixture of cisplatin or carboplatin with paclitaxel
From the text: The combination of two or more anticancer agents in the polymer implant was investigated. The release of a combination of drugs from liquid formulations of poly(sebacic-ricinoleic ester anhydride) was studied using a 1:1 w/w mixture of cisplatin or carboplatin with paclitaxel.

[2] = intravenous injection, cited from earlier work
[3] = Release of peptides from liquid poly(SA-RA) 30:70; assay type: physicochemical; settings: 200 mg in 800 mg poly(SA-RA) 30:70, phosphate buffer pH7.4, 37°C
Method: Insulin powder (200 mg) was mixed in liquid poly(SA-RA) 30:70 (800 mg) at room temperature. The uniform formulation was added in buffer solution (100 mg in 50 ml phosphate buffer pH7.4 at 37° C.) and the release of insulin to the solution was determined by HPLC. A constant release of insulin for more than 30 days was obtained.

N.N.O=C([O-])C1(C(=O)[O-])CCC1.[Pt+2] [carboplatin]
release in combination compared with the drug alone [1]: slower

N.N.[Cl][Pt][Cl] [cisplatin]
release in combination compared with the drug alone [1]: slower

CC(=O)O[C@H]1C(=O)[C@@]2(C)[C@H]([C@H](OC(=O)c3ccccc3)[C@]3(O)C[C@H](OC(=O)[C@H](O)[C@@H](NC(=O)c4ccccc4)c4ccccc4)C(C)=C1C3(C)C)[C@]1(OC(C)=O)CO[C@@H]1C[C@@H]2O [paclitaxel]
release in combination compared with the drug alone [1]: slightly enhanced
maximum tolerated dose (MTD) ([2]; female SPF C3H/HeNcrj mice): 26 mg/kg
dose at which death due to toxicity was observed ([2]; mice): 30 mg/kg

Insulin: Insulin powder mixed in liquid poly(SA-RA) 30:70
duration of constant release [3]: more than 30 days

rapamycine
release of co-incorporated drug from the device ([1]; incorporated along with paclitaxel or other anticancer agents): released constantly
